Columns and labels:
Type in all cases: in vivo
[1] = tested on: barnyardgrass (Echinochloa crus-galli); assay: Test G Pre-Emergence Protocol; conditions: Echinochloa crus-galli, pre-emergence, 312 h, evaluated after 13 days; for pest or weed control at 15.625 g/ha: 15.625 g ai/ha; for pest or weed control at 15.625 g/ha / pest or weed control at 250 g/ha: read-out: Barnyardgrass damage rating (100=total damage to plant; 0=no damage to plant); for pest or weed control at 62.5 g/ha: 62.5 g ai/ha, 100=total damage to plant, 0=no damage to plant, read-out: Barnyardgrass damage rating; for pest or weed control at 250 g/ha: 250 g ai/ha
Summary of the method: (§1)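 Glasshouse pre-emergence test: soil-sown seeds, sprayed after 1 d at 15.625, 62.5 or 250 g/ha. Conditions 24/16° C day/night, 14 h light, 65% humidity, watering twice daily. Rating 13 d post-spray (100 = total damage).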

[2] = tested on: corn (Zea mays); assay: Test G Pre-Emergence Protocol; conditions: Zea mays, pre-emergence, 312 h, evaluated after 13 days; for plant injury at 15.625 g/ha: 15.625 g ai/ha; for plant injury at 15.625 g/ha / plant injury at 250 g/ha: read-out: Corn damage rating (100=total damage to plant; 0=no damage to plant); for plant injury at 62.5 g/ha: 62.5 g ai/ha, 100=total damage to plant, 0=no damage to plant, read-out: Corn damage rating; for plant injury at 250 g/ha: 250 g ai/ha
Summary of the method: as §1

[3] = tested on: giant foxtail (Setaria faberi); assay: Test G Pre-Emergence Protocol; conditions: Setaria faberi, pre-emergence, 312 h, evaluated after 13 days; for pest or weed control at 15.625 g/ha: 15.625 g ai/ha; for pest or weed control at 15.625 g/ha / pest or weed control at 250 g/ha: read-out: Foxtail, Giant damage rating (100=total damage to plant; 0=no damage to plant); for pest or weed control at 62.5 g/ha: 62.5 g ai/ha, 100=total damage to plant, 0=no damage to plant, read-out: Foxtail, Giant damage rating; for pest or weed control at 250 g/ha: 250 g ai/ha
Summary of the method: as §1

[4] = tested on: ivy-leaved morning glory (Ipomoea hederacea); assay: Test G Pre-Emergence Protocol; conditions: Ipomoea, pre-emergence, 312 h, evaluated after 13 days; for pest or weed control at 15.625 g/ha: 15.625 g ai/ha; for pest or weed control at 15.625 g/ha / pest or weed control at 250 g/ha: read-out: Morningglory, Ivy-leaved damage rating (100=total damage to plant; 0=no damage to plant); for pest or weed control at 62.5 g/ha: 62.5 g ai/ha, 100=total damage to plant, 0=no damage to plant, read-out: Morningglory, Ivy-leaved damage rating; for pest or weed control at 250 g/ha: 250 g ai/ha
Summary of the method: as §1

[5] = tested on: redroot pigweed (Amaranthus retroflexus); assay: Test G Pre-Emergence Protocol; conditions: Amaranthus retroflexus, pre-emergence, 312 h, evaluated after 13 days; for pest or weed control at 15.625 g/ha: 15.625 g ai/ha; for pest or weed control at 15.625 g/ha / pest or weed control at 250 g/ha: read-out: Pigweed, Redroot damage rating (100=total damage to plant; 0=no damage to plant); for pest or weed control at 62.5 g/ha: 62.5 g ai/ha, 100=total damage to plant, 0=no damage to plant, read-out: Pigweed, Redroot damage rating; for pest or weed control at 250 g/ha: 250 g ai/ha
Summary of the method: as §1

[6] = tested on: velvetleaf (Abutilon theophrasti); assay: Test G Pre-Emergence Protocol; conditions: Abutilon theophrasti, pre-emergence, 312 h, evaluated after 13 days; for pest or weed control at 15.625 g/ha: 15.625 g ai/ha; for pest or weed control at 15.625 g/ha / pest or weed control at 250 g/ha: read-out: Velvetleaf damage rating (100=total damage to plant; 0=no damage to plant); for pest or weed control at 62.5 g/ha: 62.5 g ai/ha, 100=total damage to plant, 0=no damage to plant, read-out: Velvetleaf damage rating; for pest or weed control at 250 g/ha: 250 g ai/ha
Summary of the method: as §1

[7] = tested on: barnyardgrass (Echinochloa crus-galli); assay: Test G Post-Emergence Protocol; conditions: Echinochloa crus-galli, post-emergence, 312 h, read-out: Barnyardgrass damage rating; for pest or weed control at 15.625 g/ha: 15.625 g ai/ha, evaluated after 13 days (100=total damage to plant; 0=no damage to plant); for pest or weed control at 62.5 g/ha: 62.5 g ai/ha; for pest or weed control at 62.5 g/ha / pest or weed control at 250 g/ha: evaluated after 13 days, 100=total damage to plant, 0=no damage to plant; for pest or weed control at 250 g/ha: 250 g ai/ha
Summary of the method: (§2)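 Scores run 0 (no damage) to 100 (total damage) and were taken 13 days after spraying. Plants had been raised in pots for 8 days under glasshouse control (24/16 °C, 14 h photoperiod, 65% humidity) and then treated at 15.625, 62.5 or 250 g/ha.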

[8] = tested on: corn (Zea mays); assay: Test G Post-Emergence Protocol; conditions: Zea mays, post-emergence, 312 h, read-out: Corn damage rating; for plant injury at 15.625 g/ha: 15.625 g ai/ha, evaluated after 13 days (100=total damage to plant; 0=no damage to plant); for plant injury at 62.5 g/ha: 62.5 g ai/ha; for plant injury at 62.5 g/ha / plant injury at 250 g/ha: evaluated after 13 days, 100=total damage to plant, 0=no damage to plant; for plant injury at 250 g/ha: 250 g ai/ha
Summary of the method: as §2

[9] = tested on: giant foxtail (Setaria faberi); assay: Test G Post-Emergence Protocol; conditions: Setaria faberi, post-emergence, 312 h, read-out: Foxtail, Giant damage rating; for pest or weed control at 15.625 g/ha: 15.625 g ai/ha, evaluated after 13 days (100=total damage to plant; 0=no damage to plant); for pest or weed control at 62.5 g/ha: 62.5 g ai/ha; for pest or weed control at 62.5 g/ha / pest or weed control at 250 g/ha: evaluated after 13 days, 100=total damage to plant, 0=no damage to plant; for pest or weed control at 250 g/ha: 250 g ai/ha
Summary of the method: as §2

[10] = tested on: ivy-leaved morning glory (Ipomoea hederacea); assay: Test G Post-Emergence Protocol; conditions: Ipomoea, post-emergence, 312 h, read-out: Morningglory, Ivy-leaved damage rating; for pest or weed control at 15.625 g/ha: 15.625 g ai/ha, evaluated after 13 days (100=total damage to plant; 0=no damage to plant); for pest or weed control at 62.5 g/ha: 62.5 g ai/ha; for pest or weed control at 62.5 g/ha / pest or weed control at 250 g/ha: evaluated after 13 days, 100=total damage to plant, 0=no damage to plant; for pest or weed control at 250 g/ha: 250 g ai/ha
Summary of the method: as §2

[11] = tested on: redroot pigweed (Amaranthus retroflexus); assay: Test G Post-Emergence Protocol; conditions: Amaranthus retroflexus, post-emergence, 312 h, read-out: Pigweed, Redroot damage rating; for pest or weed control at 15.625 g/ha: 15.625 g ai/ha, evaluated after 13 days (100=total damage to plant; 0=no damage to plant); for pest or weed control at 62.5 g/ha: 62.5 g ai/ha; for pest or weed control at 62.5 g/ha / pest or weed control at 250 g/ha: evaluated after 13 days, 100=total damage to plant, 0=no damage to plant; for pest or weed control at 250 g/ha: 250 g ai/ha
Summary of the method: as §2

[12] = tested on: velvetleaf (Abutilon theophrasti); assay: Test G Post-Emergence Protocol; conditions: Abutilon theophrasti, post-emergence, 312 h, read-out: Velvetleaf damage rating; for pest or weed control at 15.625 g/ha: 15.625 g ai/ha, evaluated after 13 days (100=total damage to plant; 0=no damage to plant); for pest or weed control at 62.5 g/ha: 62.5 g ai/ha; for pest or weed control at 62.5 g/ha / pest or weed control at 250 g/ha: evaluated after 13 days, 100=total damage to plant, 0=no damage to plant; for pest or weed control at 250 g/ha: 250 g ai/ha
Summary of the method: as §2

Row | SMILES | pest or weed control at 15.625 g/ha [1] [%] | pest or weed control at 62.5 g/ha [1] [%] | pest or weed control at 250 g/ha [1] [%] | plant injury at 15.625 g/ha [2] [%] | plant injury at 62.5 g/ha [2] [%] | plant injury at 250 g/ha [2] [%] | pest or weed control at 15.625 g/ha [3] [%] | pest or weed control at 62.5 g/ha [3] [%] | pest or weed control at 250 g/ha [3] [%] | pest or weed control at 15.625 g/ha [4] [%] | pest or weed control at 62.5 g/ha [4] [%] | pest or weed control at 15.625 g/ha [5] [%] | pest or weed control at 62.5 g/ha [5] [%] | pest or weed control at 250 g/ha [5] [%] | pest or weed control at 15.625 g/ha [6] [%] | pest or weed control at 62.5 g/ha [6] [%] | pest or weed control at 250 g/ha [6] [%] | pest or weed control at 15.625 g/ha [7] [%] | pest or weed control at 62.5 g/ha [7] [%] | pest or weed control at 250 g/ha [7] [%] | further results
1 | CN1C[C@H](c2ccc(C(F)(F)F)cc2)[C@@H](C(=O)Nc2cnccc2F)C1=O (racemic) [Compound 1744] | 0 | 0 | 0 | 0 | 0 | 0 | 0 | 10 | 50 | 0 | 0 | 0 | 10 | 10 | 0 | 0 | 0 | 0 | 10 | 70 | plant injury at 15.625 g/ha [8]: 0%; plant injury at 62.5 g/ha [8]: 0%; plant injury at 250 g/ha [8]: 10%; pest or weed control at 15.625 g/ha [9]: 0%; pest or weed control at 62.5 g/ha [9]: 20%; pest or weed control at 250 g/ha [9]: 60%; pest or weed control at 15.625 g/ha [10]: 0%; pest or weed control at 62.5 g/ha [10]: 0%; pest or weed control at 250 g/ha [10]: 40%; pest or weed control at 15.625 g/ha [11]: 0%; pest or weed control at 62.5 g/ha [11]: 10%; pest or weed control at 250 g/ha [11]: 30%; pest or weed control at 15.625 g/ha [12]: 0%; pest or weed control at 62.5 g/ha [12]: 0%; pest or weed control at 250 g/ha [12]: 10%
2 | CCOc1cc([C@@H]2CN(C)C(=O)[C@H]2C(=O)Nc2cccc(F)c2F)cc(C(F)(F)F)n1 (racemic) [Compound 1753] | 30 | 70 | 80 | 0 | 0 | 60 | 70 | 80 | 90 | 0 | 0 | 0 | 0 | 60 | 0 | 0 | 0 | 40 | 70 | 70 | pest or weed control at 250 g/ha [4]: 80%; plant injury at 15.625 g/ha [8]: 60%; plant injury at 62.5 g/ha [8]: 60%; plant injury at 250 g/ha [8]: 80%; pest or weed control at 15.625 g/ha [9]: 60%; pest or weed control at 62.5 g/ha [9]: 60%; pest or weed control at 250 g/ha [9]: 70%; pest or weed control at 15.625 g/ha [10]: 20%; pest or weed control at 62.5 g/ha [10]: 50%; pest or weed control at 250 g/ha [10]: 60%; pest or weed control at 15.625 g/ha [11]: 0%; pest or weed control at 62.5 g/ha [11]: 20%; pest or weed control at 250 g/ha [11]: 30%; pest or weed control at 15.625 g/ha [12]: 10%; pest or weed control at 62.5 g/ha [12]: 20%; pest or weed control at 250 g/ha [12]: 30%
3 | CON1C[C@@H](c2cccc(C(F)(F)F)c2)[C@H](C(=O)Nc2cccc(F)c2F)C1=O (racemic) [Compound 1763] | 20 | 60 | 80 | 0 | 50 | 80 | 80 | 90 | 90 | 0 | 0 | 0 | 0 | 0 | 0 | 0 | 0 | 40 | 60 | 70 | pest or weed control at 250 g/ha [4]: 20%; plant injury at 15.625 g/ha [8]: 20%; plant injury at 62.5 g/ha [8]: 20%; plant injury at 250 g/ha [8]: 70%; pest or weed control at 15.625 g/ha [9]: 60%; pest or weed control at 62.5 g/ha [9]: 60%; pest or weed control at 250 g/ha [9]: 70%; pest or weed control at 15.625 g/ha [10]: 30%; pest or weed control at 62.5 g/ha [10]: 40%; pest or weed control at 250 g/ha [10]: 50%; pest or weed control at 15.625 g/ha [11]: 0%; pest or weed control at 62.5 g/ha [11]: 0%; pest or weed control at 250 g/ha [11]: 20%; pest or weed control at 15.625 g/ha [12]: 0%; pest or weed control at 62.5 g/ha [12]: 10%; pest or weed control at 250 g/ha [12]: 20%

From patent US12077503B2, “Substituted cyclic amides and their use as herbicides” (FMC CORPORATION, priority 2015, dated 2024)
